Measurements as given in patent publication US20240325398A1, “COMBINATION THERAPIES” (Infinity Pharmaceuticals, Inc., priority 2014, published 2024).
Structures can show the parent of a compound that is named as a salt.

Tests used:
HH = assay: Combination study, ATPLite 72 h, dose matrix (Synergy Score, CI50); type: cell-based; conditions: combination with Compound 1
Procedure: The method is described as follows.
Additive effect is CI=1.0. […] Antagonistic effect is CI>1.0.
The Synergy Score is calculated as: […]

HBL-1 = assay: as above; conditions: combination with Compound 1, 72 h
OCI-Ly3 = assay: as above; conditions: combination with Compound 1; OCI-Ly3; 72 h
Procedure: (§1) Cells are thawed from a liquid nitrogen preserved state. Once cells have been expanded and divide at their expected doubling times, screening begins. Cells are seeded in growth media in either black 1536-well or 384-well tissue culture treated plates. Cells are then equilibrated in assay plates via centrifugation and placed in incubators attached to the Dosing Modules at 37° C. for 24 hours before treatment. […] These Tzero (To) plates are read using ultra-sensitive luminescence on Envision plate readers (Perkin Elmer). Treated assay plates are incubated with compound for 72 hours. After 72 hours, plates are developed for endpoint analysis using ATPLite. All data points are collected via automated processes, quality controlled and analyzed using Zalicus software.
(§2) where T is treated cell count and V is untreated (vehicle) cell count (at 72 hours). I ranges from 0% (when T=V) to 100% (when T=0). […] The measure of effect in the experiment can be the inhibition of cellular response relative to the untreated level (vehicle alone). […] The inhibition ranges from 0% at the untreated level to 100% when T=0. Inhibition levels are negative for agents that actually increase levels. Other effect measures, such as an activity ratio r=T/V may be more appropriate for some assays. When activity ratios (e.g, fold increase over stimulated control) are being used, the effect can be measured using an induction 1=ln(T/V). With this definition, all effect expressions are the same as for inhibition.
(§3) Growth Inhibition (GI) is used as a measure of cell viability. […] A GI reading of 100% represents complete growth inhibition—T72 compound-treated and T0 vehicle signals are matched. […] A GI reading of 200% represents complete death of all cells in the culture well. Compounds reaching an activity plateau of GI 200% are considered cytotoxic. GI is calculated by applying the following test and equation:
(§4) Combination analysis data were collected in a 6×6 dose matrix. Synergy is calculated by comparing a combination's response to those of its single compound, against the drug-with-itself dose-additive reference model. Deviations from dose additivity may be assessed visually on an isobologram or numerically with a Combination Index (CI). […] Additive effect is CI=1.0. […] Antagonistic effect is CI>1.0.
(§5) To measure combination effects in excess of Loewe additivity, a scalar measure to characterize the strength of synergistic interaction termed the Synergy Score is devised. The Synergy Score is calculated as:
(§6) The fractional inhibition for each component agent and combination point in the matrix is calculated relative to the median of all vehicle-treated control wells. The Synergy Score equation integrates the experimentally-observed activity volume at each point in the matrix in excess of a model surface numerically derived from the activity of the component agents using the Loewe model for additivity. Additional terms in the Synergy Score equation (above) are used to normalize for various dilution factors used for individual agents and to allow for comparison of synergy scores across an entire experiment. The inclusion of positive inhibition gating or an Idata multiplier removes noise near the zero effect level, and biases results for synergistic interactions at that occur at high activity levels.
Loewe Volume (Loewe Vol) is used to assess the overall magnitude of the combination interaction in excess of the Loewe additivity model. Loewe Volume is particularly useful when distinguishing synergistic increases in a phenotypic activity (positive Loewe Volume) versus synergistic antagonisms (negative Loewe Volume). […] This model defines additivity as a non-synergistic combination interaction where the combination dose matrix surface should be indistinguishable from either drug crossed with itself. The calculation for Loewe additivity is:

U-2932 = assay: as above; conditions: combination with Compound 1, 72 h
TMD8 = assay: as above; conditions: combination with Compound 1; TMD8; 72 h
OCI-Ly7 = assay: as above; conditions: combination with Compound 1, 72 h
SU-DHL-4-epst = assay: as above; conditions: combination with Compound 1, 72 h
DOHH-2 = assay: as above; conditions: combination with Compound 1, 72 h
Farage = assay: as above; conditions: combination with Compound 1; Farage; 72 h
SU-DHL-10-epst = assay: as above; conditions: combination with Compound 1, 72 h
RL = assay: as above; conditions: combination with Compound 1, 72 h
KARPAS-422 = assay: as above; conditions: combination with Compound 1, 72 h
WSU-NHL = assay: as above; conditions: combination with Compound 1, 72 h
KARPAS-299 = assay: as above; conditions: combination with Compound 1
Procedure: as §1, §2, §3, §4, §5, §6
Loewe Volume (Loewe Vol) is used to assess the overall magnitude of the combination interaction in excess of the Loewe additivity model. Loewe Volume is particularly useful when distinguishing synergistic increases in a phenotypic activity (positive Loewe Volume) versus synergistic antagonisms (negative Loewe Volume). […] This model defines additivity as a non-synergistic combination interaction where the combination dose matrix surface should be indistinguishable from either drug crossed with itself.

GRANTA-519 = assay: as above; conditions: combination with Compound 1
Jeko-1 = assay: as above; conditions: combination with Compound 1
Mino = assay: as above; conditions: combination with Compound 1
NCI-H929 = assay: as above; conditions: combination with Compound 1
[1] = as above; conditions: combination with Compound 1; OPM-2
OMP-2 = assay: as above; conditions: combination with Compound 1; OPM-2
RPMI-8226 = assay: as above; conditions: combination with Compound 1

Q: Which CI50 growth inhibition (HH) does the source give for `COc1cccc2c1C(=O)c1c(O)c3c(c(O)c1C2=O)C[C@@](O)(C(=O)CO)C[C@@H]3O[C@H]1C[C@H](N)[C@H](O)[C@H](C)O1` [Doxorubicin HCl] here?
A: The CI50 growth inhibition was “W (W=≥1)”.

Q: What about the CI50 inhibition (HH) of the same compound?
A: Its CI50 inhibition is “T (T=0.5 to <0.7)”.

Q: What about the “Synergy Score growth inhibition” value (HH) of the same compound?
A: The value was “A3 (A3=>3)”.

Q: What about the “Synergy Score inhibition” value (HH) of the same compound?
A: The value was “A2 (A2=1 to <3)”.

Q: What about the CI50 growth inhibition (HBL-1) of the same compound?
A: Its CI50 growth inhibition is “S (S=0.01 to <0.5)”.

Q: And the CI50 inhibition (HBL-1)?
A: Its CI50 inhibition is “U (U=0.7 to <1)”.

Q: And the “Synergy Score growth inhibition” value (HBL-1)?
A: Its value is “A3 (A3=>3)”.

Q: And the “Synergy Score inhibition” value (HBL-1)?
A: The value was “A1 (A1=0.0001 to <1)”.

Q: And the CI50 growth inhibition (OCI-Ly3)?
A: Its CI50 growth inhibition is “U (U=0.7 to <1)”.

Q: What about the CI50 inhibition (OCI-Ly3) of the same compound?
A: Its CI50 inhibition is “W (W=≥1)”.

Q: And the “Synergy Score growth inhibition” value (OCI-Ly3)?
A: The value was “A2 (A2=1 to <3)”.

Q: What about the “Synergy Score inhibition” value (OCI-Ly3) of the same compound?
A: Its value is “A1 (A1=0.0001 to <1)”.

Q: And the CI50 growth inhibition (U-2932)?
A: Its CI50 growth inhibition is “U (U=0.7 to <1)”.

Q: And the CI50 inhibition (U-2932)?
A: The CI50 inhibition was “W (W=≥1)”.

Q: And the “Synergy Score growth inhibition” value (U-2932)?
A: The value was “A2 (A2=1 to <3)”.

Q: What about the “Synergy Score inhibition” value (U-2932) of the same compound?
A: The value was “A1 (A1=0.0001 to <1)”.

Q: And the CI50 growth inhibition (TMD8)?
A: Its CI50 growth inhibition is “T (T=0.5 to <0.7)”.

Q: What about the CI50 inhibition (TMD8) of the same compound?
A: The CI50 inhibition was “T (T=0.5 to <0.7)”.

Q: What about the “Synergy Score growth inhibition” value (TMD8) of the same compound?
A: The value was “A3 (A3=>3)”.

Q: And the “Synergy Score inhibition” value (TMD8)?
A: Its value is “A2 (A2=1 to <3)”.

Q: What about the CI50 growth inhibition (OCI-Ly7) of the same compound?
A: Its CI50 growth inhibition is “S (S=0.01 to <0.5)”.

Q: And the CI50 inhibition (OCI-Ly7)?
A: The CI50 inhibition was “S (S=0.01 to <0.5)”.

Q: What about the “Synergy Score growth inhibition” value (OCI-Ly7) of the same compound?
A: Its value is “A3 (A3=>3)”.

Q: And the “Synergy Score inhibition” value (OCI-Ly7)?
A: The value was “A2 (A2=1 to <3)”.

Q: And the CI50 growth inhibition (SU-DHL-4-epst)?
A: Its CI50 growth inhibition is “U (U=0.7 to <1)”.

Q: And the CI50 inhibition (SU-DHL-4-epst)?
A: Its CI50 inhibition is “W (W=≥1)”.

Q: What about the “Synergy Score growth inhibition” value (SU-DHL-4-epst) of the same compound?
A: Its value is “A3 (A3=>3)”.

Q: And the “Synergy Score inhibition” value (SU-DHL-4-epst)?
A: Its value is “A2 (A2=1 to <3)”.

Q: And the CI50 growth inhibition (DOHH-2)?
A: The CI50 growth inhibition was “T (T=0.5 to <0.7)”.

Q: What about the CI50 inhibition (DOHH-2) of the same compound?
A: Its CI50 inhibition is “T (T=0.5 to <0.7)”.

Q: What about the “Synergy Score growth inhibition” value (DOHH-2) of the same compound?
A: Its value is “A3 (A3=>3)”.

Q: And the “Synergy Score inhibition” value (DOHH-2)?
A: The value was “A2 (A2=1 to <3)”.

Q: What about the CI50 growth inhibition (Farage) of the same compound?
A: Its CI50 growth inhibition is “U (U=0.7 to <1)”.

Q: What about the CI50 inhibition (Farage) of the same compound?
A: Its CI50 inhibition is “T (T=0.5 to <0.7)”.

Q: What about the “Synergy Score growth inhibition” value (Farage) of the same compound?
A: The value was “A3 (A3=>3)”.

Q: What about the “Synergy Score inhibition” value (Farage) of the same compound?
A: The value was “A1 (A1=0.0001 to <1)”.

Q: What about the CI50 growth inhibition (SU-DHL-10-epst) of the same compound?
A: The CI50 growth inhibition was “T (T=0.5 to <0.7)”.

Q: What about the CI50 inhibition (SU-DHL-10-epst) of the same compound?
A: Its CI50 inhibition is “T (T=0.5 to <0.7)”.

Q: What about the “Synergy Score growth inhibition” value (SU-DHL-10-epst) of the same compound?
A: The value was “A3 (A3=>3)”.

Q: What about the “Synergy Score inhibition” value (SU-DHL-10-epst) of the same compound?
A: The value was “A2 (A2=1 to <3)”.

Q: And the CI50 growth inhibition (RL)?
A: Its CI50 growth inhibition is “U (U=0.7 to <1)”.

Q: And the CI50 inhibition (RL)?
A: Its CI50 inhibition is “W (W=≥1)”.

Q: And the “Synergy Score growth inhibition” value (RL)?
A: The value was “A2 (A2=1 to <3)”.

Q: And the “Synergy Score inhibition” value (RL)?
A: The value was “A1 (A1=0.0001 to <1)”.

Q: What about the CI50 growth inhibition (KARPAS-422) of the same compound?
A: Its CI50 growth inhibition is “W (W=≥1)”.

Q: And the CI50 inhibition (KARPAS-422)?
A: Its CI50 inhibition is “W (W=≥1)”.

Q: And the “Synergy Score growth inhibition” value (KARPAS-422)?
A: The value was “A1 (A1=0.0001 to <1)”.

Q: And the “Synergy Score inhibition” value (KARPAS-422)?
A: Its value is “A1 (A1=0.0001 to <1)”.

Q: What about the CI50 growth inhibition (WSU-NHL) of the same compound?
A: The CI50 growth inhibition was “T (T=0.5 to <0.7)”.

Q: And the CI50 inhibition (WSU-NHL)?
A: Its CI50 inhibition is “S (S=0.01 to <0.5)”.

Q: And the “Synergy Score growth inhibition” value (WSU-NHL)?
A: Its value is “A3 (A3=>3)”.

Q: And the “Synergy Score inhibition” value (WSU-NHL)?
A: The value was “A2 (A2=1 to <3)”.

Q: And the CI50 growth inhibition (KARPAS-299)?
A: Its CI50 growth inhibition is “U (U=0.7 to <1)”.

Q: What about the CI50 inhibition (KARPAS-299) of the same compound?
A: Its CI50 inhibition is “U (U=0.7 to <1)”.

Q: What about the “Synergy Score growth inhibition” value (KARPAS-299) of the same compound?
A: The value was “A2 (A2=1 to <3)”.

Q: And the “Synergy Score inhibition” value (KARPAS-299)?
A: The value was “A1 (A1=0.0001 to <1)”.

Q: What about the CI50 growth inhibition (GRANTA-519) of the same compound?
A: Its CI50 growth inhibition is “S (S=0.01 to <0.5)”.

Q: What about the CI50 inhibition (GRANTA-519) of the same compound?
A: The CI50 inhibition was “W (W=≥1)”.

Q: And the “Synergy Score growth inhibition” value (GRANTA-519)?
A: The value was “A3 (A3=>3)”.

Q: What about the “Synergy Score inhibition” value (GRANTA-519) of the same compound?
A: The value was “A1 (A1=0.0001 to <1)”.

Q: What about the CI50 growth inhibition (Jeko-1) of the same compound?
A: The CI50 growth inhibition was “T (T=0.5 to <0.7)”.

Q: What about the CI50 inhibition (Jeko-1) of the same compound?
A: Its CI50 inhibition is “U (U=0.7 to <1)”.

Q: And the “Synergy Score growth inhibition” value (Jeko-1)?
A: The value was “A3 (A3=>3)”.

Q: And the “Synergy Score inhibition” value (Jeko-1)?
A: Its value is “A1 (A1=0.0001 to <1)”.

Q: What about the CI50 growth inhibition (Mino) of the same compound?
A: Its CI50 growth inhibition is “T (T=0.5 to <0.7)”.

Q: What about the CI50 inhibition (Mino) of the same compound?
A: The CI50 inhibition was “T (T=0.5 to <0.7)”.

Q: And the “Synergy Score growth inhibition” value (Mino)?
A: The value was “A3 (A3=>3)”.

Q: What about the “Synergy Score inhibition” value (Mino) of the same compound?
A: The value was “A2 (A2=1 to <3)”.

Q: And the CI50 growth inhibition (NCI-H929)?
A: The CI50 growth inhibition was “U (U=0.7 to <1)”.

Q: What about the CI50 inhibition (NCI-H929) of the same compound?
A: Its CI50 inhibition is “U (U=0.7 to <1)”.

Q: And the “Synergy Score growth inhibition” value (NCI-H929)?
A: Its value is “A3 (A3=>3)”.

Q: What about the “Synergy Score inhibition” value (NCI-H929) of the same compound?
A: The value was “A1 (A1=0.0001 to <1)”.

Q: And the CI50 growth inhibition [1]?
A: Its CI50 growth inhibition is “W (W=≥1)”.

Q: And the CI50 inhibition (OMP-2)?
A: Its CI50 inhibition is “W (W=≥1)”.

Q: What about the “Synergy Score growth inhibition” value (OMP-2) of the same compound?
A: The value was “A2 (A2=1 to <3)”.

Q: What about the “Synergy Score inhibition” value (OMP-2) of the same compound?
A: The value was “A1 (A1=0.0001 to <1)”.

Q: What about the CI50 growth inhibition (RPMI-8226) of the same compound?
A: The CI50 growth inhibition was “U (U=0.7 to <1)”.

Q: What about the CI50 inhibition (RPMI-8226) of the same compound?
A: The CI50 inhibition was “W (W=≥1)”.

Q: And the “Synergy Score growth inhibition” value (RPMI-8226)?
A: Its value is “A3 (A3=>3)”.

Q: What about the “Synergy Score inhibition” value (RPMI-8226) of the same compound?
A: The value was “A2 (A2=1 to <3)”.
